Measurements published in patent EP4667464A1 (Cyrus Therapeutics Inc., priority 2023, dated 2024).
Like-named read-outs stand apart in the source and are kept apart here.

What was measured:
SOS1 = target: T1, SOS1 (Homo sapiens, UniProt Q07889); assay: SOS-catalyzed nucleotide exchange assay (HTRF, SOS1-mediated GTP loading of KRAS G12D); type: biochemical
T1 construct: HIS-SOS1cat (160 nM; Cytoskeleton, US); His (N); purchased Cytoskeleton
T1 sequence (Q07889 564-1049 limits assumed): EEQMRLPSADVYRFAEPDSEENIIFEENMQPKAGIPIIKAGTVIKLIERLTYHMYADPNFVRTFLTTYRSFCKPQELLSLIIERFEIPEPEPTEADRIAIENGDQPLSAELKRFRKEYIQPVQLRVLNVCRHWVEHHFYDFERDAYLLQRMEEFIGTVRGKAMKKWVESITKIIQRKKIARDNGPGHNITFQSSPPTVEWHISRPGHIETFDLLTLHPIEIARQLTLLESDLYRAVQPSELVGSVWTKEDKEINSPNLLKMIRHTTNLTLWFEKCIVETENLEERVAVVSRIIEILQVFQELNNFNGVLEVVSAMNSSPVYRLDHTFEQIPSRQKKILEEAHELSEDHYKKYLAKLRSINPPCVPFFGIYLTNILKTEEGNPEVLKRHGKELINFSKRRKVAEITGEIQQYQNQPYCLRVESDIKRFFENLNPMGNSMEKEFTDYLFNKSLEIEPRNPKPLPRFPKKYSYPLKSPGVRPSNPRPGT

KRAS G12C::SOS1 = target: T2, KRAS G12C::SOS1 (Homo sapiens, UniProt Q07889); assay: KRAS G12C::SOS1 protein-protein interaction (PPI) inhibition assay (HTRF); type: binding
T2 construct: purchased CISBIO 64KRASG12PEH
T2 sequence (Q07889 1-1333): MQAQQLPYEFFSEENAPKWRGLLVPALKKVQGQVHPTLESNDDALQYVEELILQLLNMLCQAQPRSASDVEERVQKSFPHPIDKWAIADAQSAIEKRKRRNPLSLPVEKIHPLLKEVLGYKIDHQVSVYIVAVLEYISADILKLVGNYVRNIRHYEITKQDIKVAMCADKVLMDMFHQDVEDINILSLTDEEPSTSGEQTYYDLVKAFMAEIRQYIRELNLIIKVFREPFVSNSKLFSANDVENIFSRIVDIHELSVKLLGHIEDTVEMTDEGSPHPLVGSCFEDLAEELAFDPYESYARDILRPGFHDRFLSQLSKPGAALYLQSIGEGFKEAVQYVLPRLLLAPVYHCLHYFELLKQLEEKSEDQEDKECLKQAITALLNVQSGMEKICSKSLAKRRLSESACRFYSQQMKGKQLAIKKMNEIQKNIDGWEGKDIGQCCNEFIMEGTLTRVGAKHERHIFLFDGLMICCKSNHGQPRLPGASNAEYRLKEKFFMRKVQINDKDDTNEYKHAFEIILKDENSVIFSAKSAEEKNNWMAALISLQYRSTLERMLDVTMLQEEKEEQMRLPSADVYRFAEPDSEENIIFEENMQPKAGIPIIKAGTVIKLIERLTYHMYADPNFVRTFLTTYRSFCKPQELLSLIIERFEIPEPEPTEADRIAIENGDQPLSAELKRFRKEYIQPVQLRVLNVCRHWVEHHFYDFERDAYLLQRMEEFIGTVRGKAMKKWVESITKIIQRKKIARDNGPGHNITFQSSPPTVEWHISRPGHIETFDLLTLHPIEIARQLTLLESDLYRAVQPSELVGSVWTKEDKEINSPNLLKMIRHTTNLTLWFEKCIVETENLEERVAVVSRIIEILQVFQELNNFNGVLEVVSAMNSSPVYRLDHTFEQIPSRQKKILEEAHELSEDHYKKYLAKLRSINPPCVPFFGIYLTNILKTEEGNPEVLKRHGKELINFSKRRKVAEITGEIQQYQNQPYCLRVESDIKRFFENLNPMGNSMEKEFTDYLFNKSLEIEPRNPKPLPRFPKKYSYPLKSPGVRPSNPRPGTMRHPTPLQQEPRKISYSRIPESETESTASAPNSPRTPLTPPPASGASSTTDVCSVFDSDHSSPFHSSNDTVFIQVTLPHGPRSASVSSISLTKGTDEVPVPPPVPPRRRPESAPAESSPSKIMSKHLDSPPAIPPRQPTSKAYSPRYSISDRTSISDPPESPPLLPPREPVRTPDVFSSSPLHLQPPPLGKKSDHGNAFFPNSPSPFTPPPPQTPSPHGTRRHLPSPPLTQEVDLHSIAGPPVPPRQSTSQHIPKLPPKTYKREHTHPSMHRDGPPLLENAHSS
How it was run: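 Compounds, at eight 3-fold dilutions from 3 µM, were mixed with GTP-loaded Tag1-KRAS G12C, Tag2-SOS1 and a terbium-cryptate donor plus XL665 acceptor antibody pair. After 2 h at room temperature, time-resolved FRET reported the KRAS–SOS1 interaction.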

[1] = test system: lung cancer cell line NCI-H358 having the KRAS G12C variant; assay: Cancer cell growth inhibition, 3D spheroids (CellTiter-Glo 3D); type: cell-based; settings: Homo sapiens, NCI-H358, 120 h, read-out: H358 cell viability
How it was run: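 NCI-H358 (KRAS G12C) spheroids lysed with CellTiter-Glo 3D for 30 min with shaking after 10 min at room temperature. Growth in compound-treated wells expressed relative to untreated wells set to 100%.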

[2] = test system: lung cancer cell line H358 having the KRAS G12S variant; assay: SynergyScreen combination efficacy (ATPlite 1Step cell viability); settings: for Synergy 2: difference between Synergy 1 and cell death rate of Ex. 1-2 alone
Description: In order to measure cell viability, each well was treated with 24 µL of ATPlite 1Step™ (PerkinElmer) solution, then mixed for 2 minutes, and reacted by blocking light for 5 minutes, and then the luminescence signal was measured using an Envision multilabel reader (PerkinElmer).

[3] = GST-KRAS G12D, HIS-SOS1cat, compound 128 pM to 10 µM; read-out: SOS-catalyzed nucleotide exchange assay
[4] = 8 concentrations from 3 µM, three replicates; read-out: KRAS G12C::SOS1 PPI
[5] = 3D spheroids, 0.002-10 µM, 5 days

| Compound | IC50 (SOS1; [3]) [nM] | IC50 (KRAS G12C::SOS1; [4]) [nM] | IC50 [1, 5] [nM] | also measured |
| --- | --- | --- | --- | --- |
| C[C@@H](NC(=O)c1ccc(=O)n(-c2cncc(-c3cnnn3C)c2)n1)c1cccc(C(F)(F)F)c1F [Example 1-2, N-[(1R)-1-[2-fluoro-3-(trifluoromethyl)phenyl]ethyl]-1-[5-(3-methyltriazol-4-yl)-3-pyridyl]-6-oxo-pyridazine-3-carboxamide] | 50 to 150 | 50 to 150 | < 1000 | EFFECT20 (concentration that induces 20% cell death), applied as final treatment concentration ([2]; culture time 72 h): 1854 nM; EFFECT20 (concentration that induces 20% cell death), applied as final treatment concentration ([2]; culture time 120 h): 652 nM |
| C[C@]12C=CC(=O)C=C1CC[C@@H]1[C@@H]2[C@@H](O)C[C@@]2(C)[C@H]1CC[C@]2(O)C(=O)CO [prednisolone] | – | – | – | Concentration (log M) Anticancer agent ([2]; words printed in place of a concentration, culture time 72 h, with Ex. 1-2 log M -5.9): No Concentration -dependent change |
| CNC(=O)c1cc(Oc2ccc(NC(=O)Nc3ccc(Cl)c(C(F)(F)F)c3)cc2)ccn1 [Sorafenib, sorafenib] | – | – | – | Synergy 2 ([2]; Ex. 1-2 log M -5.9, culture time 72 h): + (less than 10%) |
| [2H]C([2H])([2H])n1nncc1-c1cncc(-n2nc(C(=O)N[C@H](C)c3cccc(C(F)(F)CO)c3F)ccc2=O)c1 [Example 1-7, N-[(1R)-1-[3-(1,1-difluoro-2-hydroxy-ethyl)-2-fluoro-phenyl]ethyl]-6-oxo-1-[5-[3-(trideuteriomethyl)triazol-4-yl]-3-pyridyl]pyridazine-3-carboxamide] | < 50 | < 50 | < 1000 | – |
| [2H]C([2H])([2H])c1cc(C(=O)N[C@H](C)c2cccc(C(F)(F)F)c2F)nn(-c2cncc(-c3cnnn3C)c2)c1=O [Example 7-1, N-{(R)-1-[2-fluoro-3-(trifluoromethyl)phenyl]ethyl}-5-[methyl-trideuterio]-1-[5-(1-methyl-1H-1,2,3-triazol-5-yl)-3-pyridyl]-6-oxo-1,6-dihydropyridazine-3-carboxamide] | 50 to 150 | 50 to 150 | < 1000 | – |
| C[C@@H](NC(=O)c1ccc(=O)n(-c2cnc(N3CCOCC3)c(-c3cnnn3C)c2)n1)c1cccc(C(F)(F)F)c1F [Example 1-46, N-{(R)-1-[2-fluoro-3-(trifluoromethyl)phenyl]ethyl}-1-[5-(1-methyl-1H-1,2,3-triazol-5-yl)-6-morpholino-3-pyridyl]-6-oxo-1,6-dihydropyridazine-3-carboxamide] | – | – | – | IC50 (SOS1; read-out: SOS-catalyzed nucleotide exchange assay; GST-KRAS G12D, HIS-SOS1cat, compound 128 pM to 10 µM): 50 to 150 nM; IC50 (KRAS G12C::SOS1; read-out: KRAS G12C::SOS1 PPI; 8 concentrations from 3 µM, three replicates): 50 to 150 nM; IC50 [1]: < 1000 nM |
| O=c1cc(-c2ccc(O)c(O)c2O)oc2ccccc12 [Example 2-D08, 2-D08] | – | – | – | Synergy 2 ([2]; Ex. 1-2 log M -6.3, culture time 120 h): + (less than 10%) |
| C[C@@H](NC(=O)c1ccc(=O)n(-c2cncc(-c3cnnn3C3CC3)c2)n1)c1cccc(C(F)(F)CO)c1F [Example 1-53, N-[(1R)-1-[3-(1,1-difluoro-2-hydroxy-ethyl)-2-fluoro-phenyl]ethyl]-1-[5-(1-cyclopropyl-1H-1,2,3-triazol-5-yl)-3-pyridyl]-6-oxo-pyridazine-3-carboxamide] | < 50 | < 50 | < 1000 | – |
| [2H]C([2H])([2H])n1nncc1-c1cncc(-n2nc(C(=O)N[C@H](C)c3cc(N)cc(C(F)F)c3)ccc2=O)c1 [Example 1-4, N-[(1R)-1-[3-amino-5-(difluoromethyl)phenyl]ethyl]-6-oxo-1-[5-[3-(trideuteriomethyl)triazol-4-yl]-3-pyridyl]pyridazine-3-carboxamide] | 50 to 150 | < 50 | > 3000 | – |
